US10213415B2, “Compounds as opioid receptor modulators” (JANSSEN PHARMACEUTICA NV, priority 2004, dated 2019)
Values joined by “and” are separate entries in the source; they are usually repeats but may differ in a detail not shown here. Identical values can stand only once. Like-named read-outs stand apart in the source and are kept apart here.

Assays:
mu opioid receptor = biological target: T1, mu opioid receptor (Rattus norvegicus, UniProt P33535); assay: Rat Brain Mu Opioid Receptor Binding Assay (and Version 2a, [3H]DAMGO); details: rat forebrain membranes, margin of error 10-20%
T1 construct: from tissue; host or cells: forebrain of male Wistar rats
T1 sequence (P33535 whole entry): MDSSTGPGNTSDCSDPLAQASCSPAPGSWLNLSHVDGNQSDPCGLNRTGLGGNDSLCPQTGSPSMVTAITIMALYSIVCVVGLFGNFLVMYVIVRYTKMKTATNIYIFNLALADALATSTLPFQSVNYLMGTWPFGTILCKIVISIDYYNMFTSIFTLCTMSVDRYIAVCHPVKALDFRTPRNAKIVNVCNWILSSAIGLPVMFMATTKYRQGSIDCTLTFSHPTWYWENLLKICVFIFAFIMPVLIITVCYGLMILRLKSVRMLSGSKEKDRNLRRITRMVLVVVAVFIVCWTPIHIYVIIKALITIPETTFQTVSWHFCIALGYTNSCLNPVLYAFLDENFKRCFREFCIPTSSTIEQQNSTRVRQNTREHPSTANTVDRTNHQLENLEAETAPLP
Outline: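 Rat forebrain membranes from male Wistar rats in 50 mM Tris-HCl pH 7.4 with 5 mM MgCl2 incubated with 0.8 nM [3H]DAMGO for 2.5 h at 25° C., then filtered and counted. Data given as % inhibition of specific binding at single concentrations or as Ki from concentration series.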

[1] = biological target: T2, delta opioid receptor (NG108-15 cell membranes) (Mus musculus, UniProt P32300); assay: Delta Opioid Receptor Functional Assay: [35S]GTPγS Binding in NG108-15 Cell Membranes, Version 2; format: biochemical; details: for DOR GTP-binding Assay v2 (% I): % inhibition of agonist-stimulated GTPγS binding
T2 construct: NG108-15 cell membranes were purchased from Applied Cell Sciences (Rockville, Md.); host or cells: NG108-15 cells (membranes purchased)
T2 sequence (P32300 whole entry): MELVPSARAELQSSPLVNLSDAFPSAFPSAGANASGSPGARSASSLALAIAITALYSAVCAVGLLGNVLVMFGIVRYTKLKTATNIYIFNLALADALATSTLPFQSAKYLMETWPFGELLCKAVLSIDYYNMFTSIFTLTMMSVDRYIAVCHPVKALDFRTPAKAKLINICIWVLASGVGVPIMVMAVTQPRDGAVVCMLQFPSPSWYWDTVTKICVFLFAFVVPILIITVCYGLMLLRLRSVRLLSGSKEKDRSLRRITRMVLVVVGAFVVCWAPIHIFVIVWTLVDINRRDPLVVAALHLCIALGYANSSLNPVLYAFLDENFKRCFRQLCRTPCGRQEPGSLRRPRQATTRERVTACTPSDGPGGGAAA
Outline: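 SPA-coupled NG108-15 membranes (37.5 μg/ml) were incubated with 0.1 nM [35S]GTPγS and 100 μM GDP in Tris pH 7.6, 5 mM MgCl2, 100 mM NaCl, with increasing agonist concentrations; 10 μM unlabeled GTPγS defined nonspecific binding. EC50 from % of basal; inhibition as % of 1 μM SNC80 stimulation.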

[2] = biological target: T3, delta opioid receptor (CHO-hδ cell membranes) (Homo sapiens, UniProt P41143); assay: Delta Opioid Receptor Functional Assay: [35S]GTPγS Binding in CHO-hδ Cell Membranes, Version 1; format: biochemical; details: read-out: DOR GTP-binding Assay_v1 EC50
T3 construct: purchased Receptor Biology, Inc. (Baltimore, Md.); host or cells: CHO cells (recombinant expression)
T3 sequence (P41143 whole entry): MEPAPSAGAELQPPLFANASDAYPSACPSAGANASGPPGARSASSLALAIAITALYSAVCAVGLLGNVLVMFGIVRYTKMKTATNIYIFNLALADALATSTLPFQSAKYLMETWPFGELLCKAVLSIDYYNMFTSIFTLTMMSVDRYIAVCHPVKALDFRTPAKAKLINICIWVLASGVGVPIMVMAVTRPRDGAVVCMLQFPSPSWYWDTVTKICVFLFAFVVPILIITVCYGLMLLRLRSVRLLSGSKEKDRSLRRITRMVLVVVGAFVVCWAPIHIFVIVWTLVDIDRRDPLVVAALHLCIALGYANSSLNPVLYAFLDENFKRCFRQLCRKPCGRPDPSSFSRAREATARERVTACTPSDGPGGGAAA
Description: CHO-hδ cell membranes were purchased from Receptor Biology, Inc. (Baltimore, Md.). 10 mg/ml of membrane protein suspended in 10 mM TRIS-HC pH 7.2, 2 mM EDTA, 10% sucrose.
Membranes were maintained at 4-8° C. A portion (1 ml) of membranes was added into 15 mL cold binding assay buffer. The assay buffer contained 50 mM HEPES, pH 7.6, 5 mM MgCl2, 100 mM NaCl, 1 mM DTT and 1 mM EDTA. The membrane suspension was homogenized with a Polytron for 2 times and centrifuged at 3000 rpm for 10 min. The supernent was then centrifuged at 18,000 rpm for 20 min. The pellet was saved in a tube and 10 ml assay buffer was added into the tube. The pellet and buffer were mixed with a Polytron.
The pellet membranes (20 μg/ml) were preincubated with SPA (10 mg/ml) at 25° C. for 45 min in the assay buffer. The SPA (5 mg/ml) coupled with membranes (10 μg/ml) was then incubated with 0.5 nM [^35S]GTPγS in the same HEPES buffer containing 50 μM GDP in total volume of 200 μl. Increasing concentrations of receptor agonists were used to stimulate [^35S]GTPγS binding. The basal binding was tested in the absent agonists and no specific binding was tested in the present 10 μM unlabeled GTPγS. The data were analyzed on a Top counter.
Data The % of Basal=(stimulate−non specific)*100/(basal−non specific). EC50 values were calculated using a Prism program.

[3] = NG108-15 cell membranes, [35S]GTPγS, version 2, read-out: DOR GTP-binding Assay_v2_ EC50
[4] = NG108-15 cell membranes, version 2

| Structure (SMILES) | Ki (mu opioid receptor; read-out: r Ki μ) | EC50 [1, 3] [nM] | DOR GTP-binding Assay v2 (% I) [1, 4] [%] | Ki (mu opioid receptor; r Ki μ) | EC50 [1] [nM] | EC50 [2] |
| --- | --- | --- | --- | --- | --- | --- |
| Cc1cc(C(N)=O)cc(C)c1C[C@H](N)C(=O)N(Cc1cccc(C(=O)O)c1)[C@@H](C)c1nc(-c2ccccc2)c[nH]1 [Cpd 227] | 0.96 nM | > 10000 | 66.56 | – | – | – |
| COc1ccc(CN(C(=O)[C@@H](N)Cc2c(C)cc(C(N)=O)cc2C)[C@@H](C)c2nc(-c3ccccc3)c[nH]2)cc1-c1nnn[nH]1 [Cpd 8] | 0.51 nM | > 10000 | 94.03 | – | – | – |
| CC(C)N(Cc1nc(-c2ccccc2)c[nH]1)C(=O)[C@@H](N)Cc1ccc(O)cc1 [Cpd 195] | 9.29 nM | – | – | – | – | – |
| COc1ccc(CN(C(=O)[C@@H](N)Cc2c(C)cc(C(N)=O)cc2C)[C@@H](C)c2nc(-c3ccccc3)c[nH]2)cc1C(=O)O [Cpd 18] | – | – | 100 | 0.75 nM and 1.1 nM | > 10000 | – |
| Cc1cc(O)cc(C)c1C[C@H](N)C(=O)N(Cc1nc(-c2ccccc2)c[nH]1)C1CCCCC1 [Cpd 190] | 2.61 nM | – | – | – | – | 3830 nM |
| Cc1cc(C(N)=O)cc(C)c1C[C@H](N)C(=O)N(Cc1ccccc1)[C@@H](C)c1nc(-c2ccccc2)c[nH]1 [Cpd 114] | 0.26 nM | – | – | – | – | 35 nM |
| Cc1cc(O)cc(C)c1C[C@H](N)C(=O)N(Cc1nc(-c2ccc(F)cc2)c(C)[nH]1)C(C)C [Cpd 163] | 0.03 nM | – | – | – | – | 21 nM |
| COc1ccc(CN(C(=O)[C@@H](N)Cc2c(C)cc(O)cc2C)[C@@H](C)c2nc(-c3ccccc3)c[nH]2)cc1C(=O)O [Cpd 260] | 0.24 nM | > 10000 | 100.97 | – | – | – |
| COc1ccc(CN(Cc2nc(-c3ccccc3)c[nH]2)C(=O)[C@@H](N)Cc2ccc(C(N)=O)cc2)cc1C(=O)O [Cpd 5] | 1.19 nM | > 10000 | 47.12 | – | – | – |
| Cc1cc(O)cc(C)c1C[C@H](N)C(=O)N(Cc1nc(-c2ccccc2)c[nH]1)CC1CC1 [Cpd 192] | 0.09 nM | – | – | – | – | 76 nM |
| CC(C)N(C(=O)[C@@H](N)Cc1ccc(O)cc1)[C@@H](C)c1nc(-c2ccccc2)c[nH]1 [Cpd 225] | 0.73 nM | – | – | – | – | 2190 nM |
| CCN(C(=O)[C@@H](N)Cc1ccc(O)cc1)[C@@H](C)c1nc(-c2ccccc2)c[nH]1 [Cpd 215] | 0.43 nM | – | – | – | – | 1060 nM |
| COC(=O)c1ccc(CN(C(=O)[C@@H](N)Cc2ccc(C(N)=O)cc2)[C@@H](C)c2nc(-c3ccccc3)c[nH]2)o1 [Cpd 303] | 3.87 nM | 95 | 23.85 | – | – | – |
| COc1ccc(CN(C(=O)[C@@H](N)Cc2c(C)cc(C(N)=O)cc2C)[C@@H](C)c2nc(-c3ccccc3)c[nH]2)cc1OC [Cpd 75] | 0.51 nM | 1.4 | 65.35 | – | – | – |
| Cc1cc(O)cc(C)c1C[C@H](N)C(=O)N(Cc1cccc(C(=O)O)c1)[C@@H](C)c1nc(-c2ccccc2)c[nH]1 [Cpd 48] | 0.14 nM | > 10000 | 108.36 | – | – | – |
| COc1ccc(CN(C(=O)[C@@H](N)Cc2ccc(C(N)=O)cc2)[C@@H](C)c2nc(-c3ccccc3)c[nH]2)cc1C(=O)O [Cpd 4] | 2.41 nM | 46 | 66.12 | – | – | – |
| Cc1cc(O)cc(C)c1C[C@H](N)C(=O)N(C)[C@H](C)c1nc(-c2ccccc2)c[nH]1 [Cpd 206] | 0.2 nM | – | – | – | – | 37 nM |
| Cc1cc(O)cc(C)c1C[C@H](N)C(=O)N(Cc1nc(-c2ccccc2)c(C)[nH]1)C(C)C [Cpd 166] | 0.03 nM and 0.07 nM | – | – | – | – | 21 nM and 71 nM |
| C[C@H](c1nc(-c2ccccc2)c[nH]1)N(C)C(=O)[C@@H](N)Cc1ccc(C(N)=O)cc1 [Cpd 203] | 29.1 nM | – | – | – | – | 515 nM |
| CCN(C(=O)[C@@H](N)Cc1c(C)cc(O)cc1C)[C@H](C)c1nc(-c2ccccc2)c[nH]1 [Cpd 217] | 1.08 nM | – | – | – | – | 82 nM |

| Structure (SMILES) | Ki (mu opioid receptor; read-out: r Ki μ) | EC50 [1, 3] [nM] | DOR GTP-binding Assay v2 (% I) [1, 4] [%] | Ki (mu opioid receptor; r Ki μ) | EC50 [1] [nM] | EC50 [2] |
| --- | --- | --- | --- | --- | --- | --- |
| Cc1cc(O)cc(C)c1C[C@H](N)C(=O)N(Cc1ccccc1)[C@@H](C)c1nc(-c2ccccc2)c[nH]1 [Cpd 218] | 0.03 nM | – | – | – | – | 20 nM |
| CCN(C(=O)[C@@H](N)Cc1ccc(O)cc1)[C@H](C)c1nc(-c2ccccc2)c[nH]1 [Cpd 214] | 44 nM | – | – | – | – | 26000 nM |
| Cc1cc(C(N)=O)cc(C)c1C[C@H](N)C(=O)N(Cc1cccc(-c2nnn[nH]2)c1)[C@@H](C)c1nc(-c2ccccc2)c[nH]1 [Cpd 242] | 0.59 nM | > 10000 | 91.45 | – | – | – |
| C[C@H](c1nc(-c2ccccc2)c[nH]1)N(Cc1ccccc1)C(=O)[C@@H](N)Cc1ccc(O)cc1 [Cpd 221] | 0.36 nM | – | – | – | – | 308 nM |
| C[C@@H](c1nc(-c2ccccc2)c[nH]1)N(Cc1ccccc1)C(=O)[C@@H](N)Cc1ccc(O)cc1 [Cpd 219] | 0.87 nM | – | – | – | – | 3560 nM |
| Cc1cc(C(N)=O)cc(C)c1C[C@H](N)C(=O)N(Cc1ccc(C(=O)O)o1)[C@@H](C)c1nc(-c2ccccc2)c[nH]1 [Cpd 256] | 7.08 nM | > 10000 | 89.19 | – | – | – |
| Cc1cc(O)cc(C)c1C[C@H](N)C(=O)N(Cc1nc(-c2ccccc2)c[nH]1)C(C)C [Cpd 194] | 0.06 nM | – | – | – | – | 189 nM |
| Cc1cc(O)cc(C)c1C[C@H](N)C(=O)N(Cc1ccnc2ccccc12)[C@@H](C)c1nc(-c2ccccc2)c[nH]1 [Cpd 246] | 0.15 nM | 0.3 | 47.01 | – | – | – |
| Cc1cc(O)cc(C)c1C[C@H](N)C(=O)N(C)Cc1nc(-c2ccccc2)c[nH]1 [Cpd 199] | 0.3 nM | – | – | – | – | 217 nM |
| Cc1cc(O)cc(C)c1C[C@H](N)C(=O)N(C)[C@@H](C)c1nc(Cc2ccccc2)c[nH]1 [Cpd 205] | 0.14 nM | – | – | – | – | 32 nM |
| COC(=O)c1ccc(CN(C(=O)[C@@H](N)Cc2c(C)cc(C(N)=O)cc2C)[C@@H](C)c2nc(-c3ccccc3)c[nH]2)o1 [Cpd 257] | 1.22 nM | 7.4 | 48.88 | – | – | – |
| Cc1cc(O)cc(C)c1C[C@H](N)C(=O)N(C)[C@@H](C)c1nc(-c2ccccc2)c[nH]1 [Cpd 207] | 0.05 nM and 0.08 nM and 0.1 nM | – | – | – | – | 8.65 nM and 12 nM |
| COc1ccc(CN(C(=O)[C@@H](N)Cc2ccc(O)cc2)[C@@H](C)c2nc(-c3ccccc3)c[nH]2)cc1C(=O)O [Cpd 261] | 0.79 nM | 21 | 30.04 | – | – | – |
| Cc1cc(O)cc(C)c1C[C@H](N)C(=O)N(Cc1nc(-c2cc(C(F)(F)F)cc(C(F)(F)F)c2)c(C)[nH]1)C(C)C [Cpd 164] | 0.38 nM | – | – | – | – | 2500 nM |
| COc1ccc(CN(C(=O)[C@@H](N)Cc2c(C)cc(C(N)=O)cc2C)[C@@H](C)c2nc(-c3ccc(I)cc3)c[nH]2)cc1C(=O)O [Cpd 289] | 0.25 nM | > 10000 | 86.27 | – | – | – |
| Cc1ccccc1-c1nc(CN(C(=O)[C@@H](N)Cc2c(C)cc(O)cc2C)C(C)C)[nH]c1C [Cpd 165] | 0.07 nM | – | – | – | – | 231 nM |
| COC(=O)c1cc(CN(C(=O)[C@@H](N)Cc2c(C)cc(C(N)=O)cc2C)[C@@H](C)c2nc(-c3ccccc3)c[nH]2)ccc1OC [Cpd 17] | 0.22 nM | 1.3 | 68.64 | – | – | – |
| CCN(C(=O)[C@@H](N)Cc1c(C)cc(O)cc1C)[C@@H](C)c1nc(-c2ccccc2)c[nH]1 [Cpd 216] | 0.04 nM | – | – | – | – | 16 nM |
| Cc1cc(C(N)=O)cc(C)c1C[C@H](N)C(=O)N(Cc1ccc(C(=O)O)cc1)[C@@H](C)c1nc(-c2ccccc2)c[nH]1 [Cpd 50] | 1.68 nM | 1.4 | 60.27 | – | – | – |
